In patent US6869956B2, “Methods of treating inflammatory and immune diseases using inhibitors of IκB kinase (IKK)” (Bristol-Myers Squibb Company, priority 2000, dated 2005):
pIC50: −log10 of the molar value. Counter-ions that a name gives are not always drawn.

Legend:
[1] = biological target: T1, recombinantly expressed IKK-1 (Homo sapiens, UniProt O15111); experiment: IKK-1 enzyme assay (33P-ATP / IκB-α phosphorylation); assay type: biochemical; settings: 33P-labeled ATP and IκB-α as substrates
T1 construct: made in house
T1 sequence (O15111 1-745): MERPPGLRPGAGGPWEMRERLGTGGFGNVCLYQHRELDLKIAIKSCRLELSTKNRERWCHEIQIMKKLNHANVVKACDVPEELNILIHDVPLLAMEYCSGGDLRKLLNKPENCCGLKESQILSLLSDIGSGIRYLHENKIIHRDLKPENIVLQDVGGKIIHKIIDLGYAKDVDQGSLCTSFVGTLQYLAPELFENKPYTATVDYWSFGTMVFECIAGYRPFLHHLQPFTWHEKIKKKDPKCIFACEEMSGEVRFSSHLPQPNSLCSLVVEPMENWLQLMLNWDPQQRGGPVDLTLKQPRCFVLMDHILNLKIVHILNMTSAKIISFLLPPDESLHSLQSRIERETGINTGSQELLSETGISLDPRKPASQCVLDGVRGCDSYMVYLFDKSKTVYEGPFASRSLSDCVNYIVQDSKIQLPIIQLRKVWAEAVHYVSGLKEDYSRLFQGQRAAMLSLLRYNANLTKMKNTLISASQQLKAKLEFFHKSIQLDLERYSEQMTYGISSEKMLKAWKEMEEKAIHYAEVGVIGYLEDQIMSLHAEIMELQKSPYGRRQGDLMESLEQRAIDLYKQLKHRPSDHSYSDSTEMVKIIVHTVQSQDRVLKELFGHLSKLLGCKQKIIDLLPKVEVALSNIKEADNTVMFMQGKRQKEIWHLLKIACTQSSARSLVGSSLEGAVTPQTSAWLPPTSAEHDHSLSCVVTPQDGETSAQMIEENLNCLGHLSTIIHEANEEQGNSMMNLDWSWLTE
Method: In this assay, test compound was added to a solution of 0.5 mM IκB-α in 40 mM Tris-HCl, pH 8, containing 4 mM MgCl2, 1 mM dithiothreitol, and 2 mM ^33P-labeled ATP. IKK enzyme (either the multisubunit complex from HeLa cells, recombinantly expressed IKK-1, or recombinantly expressed IKK-2) was then added to initiate the reaction. The multisubunit complex was isolated according to the procedure of Lee et al. [(1997) Cell 88:213-222] or Mercurio et al. [(1997) 278:860-866]. The recombinant IKK-1 and IKK-2 were expressed using the procedure of Burke et al. [(1999) J. Biol. Chem. 274:36146-36152]. After incubating for 10 minutes at 30° C., the reaction was quenched by the addition of EDTA to a final concentration of 30 mM. In order to separate the phosphorylated IκB-α (Santa Cruz Biotechnology; Santa Cruz, Calif.) product from unreacted ATP, sodium dodecylsulfate polyacrylamide gel electrophoresis (SDS-PAGE) was performed. Phosphoimager analysis of the amount of ^33P incorporation into IκB-α was executed using a Molecular Dynamics 445 Phosphoimager, and the inhibition of IKK activity by the test compound was calculated from control samples containing no inhibitor.

Compound	melting point	pIC50 [1]
CNCCNc1nc2cc3ccccc3cc2n2c(C)cnc12 (as salt: hydrochloride) [Example 13, 1-methyl-4-(2-N-methylaminoethylamino)benzo[g]imidazo[1,2-a]quinoxaline Hydrochloride]	265 to 275 °C (dec.)	
CNc1nc2cc3ccccc3cc2n2c(C)cnc12 [Example 12, 1-methyl-4-methylaminobenzo[g]imidazo[1,2-a]quinoxaline]	201 to 202 °C	6.64
CNCCNc1nc2cc3ccccc3cc2n2c(C)cnc12 [Example 13, 1-methyl-4-(2-N-methylaminoethylamino)benzo[g]imidazo[1,2-a]quinoxaline Hydrochloride]		6.46
CNc1nc2cc3ccccc3cc2c2c(C)cnn12 [Example 14, 1-methyl-4-methylaminobenzo[g]pyrazolo[1,5-c]quinazoline]		6.17
Cc1cnc2c(NCCO)nc3cc4ccccc4cc3n12 [Example 18, 1-methyl-4-(2-hydroxyethylamino)benzo[g]imidazo[1,2-a]quinoxaline]	186 to 188 °C	

Continued by rising pIC50 [1], values first:

melting point	pIC50 [1]	Compound
170 to 172 °C	5.77	Cc1cnc2c(NCCN3CCCCC3)nc3cc4ccccc4cc3n12 [Example 19, 1-methyl-4-(2-piperidin-1-yl-ethylamino)benzo[g]imidazo[1,2-a]quinoxaline]
	6.00	Cn1cnc2c(NCCN)nc3cc4ccccc4cc3c21 [Example 17]
	6.10	CNc1nc2cc3ccccc3cc2c2c1ncn2C [Example 16, 1-methyl-4-methylaminobenzo(g)imidazo(4,5-c)quinoline]
